From patent US11639493B2, “Consortium of bacteria that mineralises lipids, starches and sugars (carbohydrates) and are resistant to lethal doses of thiodicarb (carbamate) and bifenthrin (pyrethroid) for inoculation into organic matter of different origins” (priority 2018, dated 2023)

Assays:
Assay type in all cases: cell-based
Arthrobacter globiformis = assay: Adaptation stages: mortality of Arthrobacter globiformis on growth media with thiodicarb or bifenthrin; settings: for initial mortality: summary of the adaptation tests with increasing concentrations of thiodicarb and bifenthrin
Description: (§1) Bacteria strains, nitrifiers, phosphorus solubilizers and antagonists for pathogens: • a) Arthrobacter globiformis • b) Bacillus megaterium • c) Bacillus brevis • d) Bacillus thuringiensis Preparation for Stage Development • 1. Glass material is sterilized in an autoclave. • 2. The required amount of growth media is prepared, DFA Agar, Malt Agar (Corn Agar) and (PDA) to obtain viable colonies. • 3. Lethal dose (LD) applied to a hectare is established, for thiodicarb as well as bifenthrin. 10 Petri dishes are prepared with 0.1 LD of thiodicarb of bifenthrin. Dishes are incubated at 25° C. for 72 hours with cold light. Methodology • a. Physical and chemical variables obtained in the research are maintained using traces. Petri dishes are placed inside the laminar flow chamber along with the diluted samples, to seed microorganisms in the dishes, a one ml sample of the strain is taken with an automated pipette, 10^−1 and 10^−2 solutions are performed and each solution is homogenized. • b. Having the petri dishes with the sterile and cold growth media, it is homogenized with 6 right to left movements, 6 clockwise movements, 6 counterclockwise movements and 6 front to back movements over a flat horizontal surface until the inoculum is completely integrated into the media, stand until it solidifies and each dish is covered with parafilm to avoid contamination during incubation. • c. The adapted consortium conditions are kept for the starting media (habitat), humidity, pH, temperature, chemical traceability, lighting and airing, Gram colorations and malachite green for the differentiation and observation of cellular structures. • d. Dishes with thiodicarb and Bifenthrin are placed inside the incubator at 25° C. for 72 hours with a cold light lamp. • e. Inoculated dishes are incubated for 72 hours and the bacteria growth will be recorded, the product concentration impact is determined over the plate growth (12 hours of incubation). • f. The residual impact of the product is reviewed after 7 days in the malt agar and PDA agar media. • g. If there is no growth over 10%, the process is repeated until a mortality under 90% is obtained. • h. The colony diameter is determined using a graduated ruler, data is recorded subtracting the diameter of the seeded dish, from which the effect over the mycelial growth will be determined compared to the control (not poisoned MA, denominated as percentage of inhibition of radial growth (PIRG %). • i. Progress is recorded daily and after 7 days analysis of an acceptable coverage is performed, if not, the procedure is repeated as many times as required. • j. From the 10 Petri dishes for each microorganism, the one with the lowest mortality is the one that will continue with the following study. • k. The study is performed again using this percentage until coverage increases and so on, the addition of thiodicarb and bifenthrin is alternated with the LD in intervals of 0.1 LD; all these experiments have been designed with the experimental strains and a control. • l. With the data obtained from the bacterial growth, the percentage of inhibition of gradual growth is obtained, the data is transformed for its analysis with the expression 2 arc sin. A two-way classification analysis of variance is applied and later the Turkey test is performed using a 5% probability.
(§2) Characteristics for this procedure were recorded during all stages through the following indicators: • a. Growth speed • b. Percentage of inhibition measured in Number of CFU/mm • c. Percentage of poison resistance
Habitat conditions are maintained, conditions obtained during the adaptation to organophosphorus and organochlorinated compounds and mercury of the microorganism, pH: 7.0, humidity: 35%, Temperature: Thermoresistant. These conditions are the starting point to adapt the strain to the new pollutants: thiodicarb (carbamate) and bifenthrin (pyrethroid). […]

Bacillus subtillis = assay: Adaptation stages: mortality of Bacillus subtillis on growth media with thiodicarb or bifenthrin; settings: for Resistant to: FINAL: Bacillus subtillis at the end of the adaptation process
Bacillus brevis = assay: Adaptation stages: mortality of Bacillus brevis on growth media with thiodicarb or bifenthrin; settings: for Resistant to: FINAL: Bacillus brevis at the end of the adaptation process
Description: as §1, §2
(§3) Beginning with habitat conditions obtained in the adaptation to organophosphate, organochlorine compounds and mercury from the microorganisms at the E-38 pH: 7.2, Humidity: 36%, thermoresistant and facultative anaerobic. These conditions are the starting point to adapt the strain to thiodicarb and bifenthrin.
To adapt this microorganism, 51 stages were performed, beginning the process with the conventional growth media. […]

Bacillus thuringiensis = assay: Adaptation stages: mortality of Bacillus thuringiensis on growth media with thiodicarb or bifenthrin; settings: for Resistant to: FINAL: B. Thuringiensis at the end of the adaptation process
Description: as §1, §2
as §3, with “52%,” for “36%,”, “thermoresistant (74° C.), […]” for “thermoresistant”, “bifenthrin. During all stages a cold light lamp will be used to adapt the microorganism to sunlight. […]” for “bifenthrin.”

[1] = stages E-5 and E-6, 0.1 LD (0.00000006 gr)
[2] = stages E-7 and E-8, 0.2 LD (0.00000012 gr)
[3] = stages E-13 and E-14, 0.3 LD (0.00000018 gr)
[4] = stages E-21 and E-22, 0.5 LD (0.00000030 gr)
[5] = stages E-29 and E-30, 0.7 LD (0.00000036 gr)
[6] = stages E-37 and E-38, 0.9 LD (0.00000042 gr)
[7] = stages E-45 and E-46, 1.1 LD (0.00000054 gr)
[8] = stages E-3 and E-4, 0.2 LD (0.000035 gr)
[9] = stages E-9 and E-10, 0.3 LD (0.000053 gr)
[10] = stages E-11 and E-12, 0.4 LD (0.000070 gr)
[11] = stages E-15 and E-16, 0.4 LD (0.00000024 gr)
[12] = stages E-17 and E-18, 0.5 LD (0.000087 gr)
[13] = stages E-19 and E-20, 0.6 LD (0.00011 gr)
[14] = stages E-23 and E-24, 0.6 LD (0.00000036 gr)
[15] = stages E-25 and E-26, 0.7 LD (0.00012 gr)
[16] = stages E-27 and E-28, 0.8 LD (0.00014 gr)
[17] = stages E-31 and E-32, 0.8 LD (0.00000042 gr)
[18] = stages E-33 and E-34, 0.9 LD (0.00016 gr)
[19] = stages E-35 and E-36, 1 LD (0.00018 gr)
[20] = stages E-39 and E-40, 1 LD (0.00000048 gr)
[21] = stage E-1, 0.1 LD (0.0000175 gr), until day 68 of incubation
[22] = stage E-2, 0.1 LD (0.0000175 gr)
[23] = stages E-41 and E-42, 1.1 LD (0.00020 gr)
[24] = stages E-43 and E-44, 1.2 LD (0.00022 gr), both stages
[25] = stages E-47 and E-48, 1.2 LD (0.00000060 gr)

Question: Which results are given for `Cc1c(COC(=O)[C@@H]2[C@H](/C=C(\Cl)C(F)(F)F)C2(C)C)cccc1-c1ccccc1` (racemic) [bifenthrin, 2-methyl biphenyl-3-ilmetil(2)-(1RS,3RS)-3-(2-chlorine 3,3,3-trifluoropropene)-2,2-dimethyl-cyclo-propane-carboxylate]?
Answer: mortality (Arthrobacter globiformis; [1]): 84%; mortality (Arthrobacter globiformis; [2]): 75%; mortality (Arthrobacter globiformis; [3]): 70%; mortality (Arthrobacter globiformis; [4]): 56%; mortality (Arthrobacter globiformis; [5]): 40%; mortality (Arthrobacter globiformis; [6]): 25%; initial mortality (Arthrobacter globiformis): ~82%; Resistant to: FINAL (Bacillus subtillis): 1 LD of; mortality (Bacillus subtillis; [1]): 72 to 71%; mortality (Bacillus subtillis; [2]): 70 to 68%; mortality (Bacillus subtillis; [3]): 65%; mortality (Bacillus subtillis; [4]): 47 to 45%; mortality (Bacillus subtillis; [5]): 25 to 23%; mortality (Bacillus subtillis; [6]): 8 to 6%; Resistant to: FINAL (Bacillus brevis): 1.3 LD of; mortality (Bacillus brevis; [1]): 73%; mortality (Bacillus brevis; [2]): 70 to 68%; mortality (Bacillus brevis; [3]): 67%; mortality (Bacillus brevis; [4]): 55%; mortality (Bacillus brevis; [5]): 44%; mortality (Bacillus brevis; [6]): 26%; mortality (Bacillus brevis; [7]): 20%; Resistant to: FINAL (Bacillus thuringiensis): 1.2 LD of; mortality (Bacillus thuringiensis; [1]): 68 to 65%; mortality (Bacillus thuringiensis; [2]): 64 to 63%; mortality (Bacillus thuringiensis; [3]): 57 to 55%; mortality (Bacillus thuringiensis; [4]): 50 to 45%; mortality (Bacillus thuringiensis; [5]): 36 to 33%; mortality (Bacillus thuringiensis; [6]): 30 to 28%; mortality (Bacillus thuringiensis; [7]): 15 to 12%

Question: What does the source list for `CS/C(C)=N\OC(=O)N(C)SN(C)C(=O)O/N=C(\C)SC` [thiodicarb]?
Answer: mortality (Arthrobacter globiformis; stages E-1 and E-2, 0.1 LD (0.0000175 gr) in growth media, until incubation day 45): 86%; mortality (Arthrobacter globiformis; [8]): 66 to 80%; mortality (Arthrobacter globiformis; [9]): 74%; mortality (Arthrobacter globiformis; [10]): 71%; mortality (Arthrobacter globiformis; [11]): 62%; mortality (Arthrobacter globiformis; [12]): 63%; mortality (Arthrobacter globiformis; [13]): 58%; mortality (Arthrobacter globiformis; [14]): 48%; mortality (Arthrobacter globiformis; [15]): 48%; mortality (Arthrobacter globiformis; [16]): 40%; mortality (Arthrobacter globiformis; [17]): 36%; mortality (Arthrobacter globiformis; [18]): 32%; mortality (Arthrobacter globiformis; [19]): 25%; mortality (Arthrobacter globiformis; [20]): 18%; initial mortality (Arthrobacter globiformis): ~82%; Resistant to: FINAL (Bacillus subtillis): 1 LD of; mortality (Bacillus subtillis; [21]): 82%; mortality (Bacillus subtillis; [22]): 80%; mortality (Bacillus subtillis; [8]): 75 to 72%; mortality (Bacillus subtillis; [9]): 66 to 63%; mortality (Bacillus subtillis; [10]): 64 to 62%; mortality (Bacillus subtillis; [11]): 64 to 60%; mortality (Bacillus subtillis; [12]): 59 to 54%; mortality (Bacillus subtillis; [13]): 52 to 50%; mortality (Bacillus subtillis; [14]): 40 to 35%; mortality (Bacillus subtillis; [15]): 35 to 30%; mortality (Bacillus subtillis; [16]): 28 to 25%; mortality (Bacillus subtillis; [17]): 20 to 18%; mortality (Bacillus subtillis; [18]): 18 to 15%; mortality (Bacillus subtillis; [19]): 12 to 9%; mortality (Bacillus subtillis; [20]): 5%; Resistant to: FINAL (Bacillus brevis): 1.3 LD of; mortality (Bacillus brevis; [21]): 82%; mortality (Bacillus brevis; [22]): 78%; mortality (Bacillus brevis; [8]): 72%; mortality (Bacillus brevis; [9]): 68%; mortality (Bacillus brevis; [10]): 67%; mortality (Bacillus brevis; [11]): 60%; mortality (Bacillus brevis; [12]): 59 to 54%; mortality (Bacillus brevis; [13]): 55%; mortality (Bacillus brevis; [14]): 51%; mortality (Bacillus brevis; [15]): 50%; mortality (Bacillus brevis; [16]): 46%; mortality (Bacillus brevis; [17]): 42%; mortality (Bacillus brevis; [18]): 38%; mortality (Bacillus brevis; [19]): 28%; mortality (Bacillus brevis; [20]): 20%; mortality (Bacillus brevis; [23]): 28%; mortality (Bacillus brevis; [24]): 22%; mortality (Bacillus brevis; [25]): 12%; mortality (Bacillus brevis; stages E-49 and E-50, 1.3 LD (0.00024 gr)): 10%; Resistant to: FINAL (Bacillus thuringiensis): 1.2 LD of; mortality (Bacillus thuringiensis; stages E-1 and E-2, 0.1 LD (0.0000175 gr), until day 45 of incubation): 72 to 70%; mortality (Bacillus thuringiensis; [8]): 70 to 68%; mortality (Bacillus thuringiensis; [9]): 65 to 61%; mortality (Bacillus thuringiensis; [10]): 57 to 55%; mortality (Bacillus thuringiensis; [11]): 52 to 50%; mortality (Bacillus thuringiensis; [12]): 52 to 50%; mortality (Bacillus thuringiensis; [13]): 50 to 45%; mortality (Bacillus thuringiensis; [14]): 44 to 42%; mortality (Bacillus thuringiensis; [15]): 44 to 40%; mortality (Bacillus thuringiensis; [16]): 36 to 35%; mortality (Bacillus thuringiensis; [17]): 30 to 28%; mortality (Bacillus thuringiensis; [18]): 30%; mortality (Bacillus thuringiensis; [19]): 25%; mortality (Bacillus thuringiensis; [20]): 18 to 17%; mortality (Bacillus thuringiensis; [23]): 18 to 17%; mortality (Bacillus thuringiensis; [24]): 14%; mortality (Bacillus thuringiensis; [25]): 10 to 7%
